Where “and” joins values, the source holds several entries; their conditions need not be identical. Identical values can stand only once. Inconclusive results and toxic doses are left out. How the source made its calls: active means survival T/C of 150% or more; inactive means T/C below 125% in these data.
Test system: CD2F1 mice, L1210 leukemia ip, survival T/C
Assay: NCI In Vivo Anticancer Drug Screen. Data for tumor model L1210 Leukemia (intraperitoneal) in CD2F1 (CDF1) mice
Conditions: higher = longer survival
Method in brief: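 Tumor-bearing mice (transplanted tumor) were split into treated and vehicle control groups, and the measured endpoint of each treated group was divided by that of its vehicle controls.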

[1] = endpoint: mean survival time, dose: 100.0 mg/kg/injection, schedule: Q01DX001 (ip), vehicle: saline with Tween-80
[2] = endpoint: mean survival time, dose: 100.0 mg/kg/injection, schedule: Q04DX002 (ip), vehicle: saline with Tween-80
[3] = endpoint: mean survival time, dose: 200.0 mg/kg/injection, schedule: Q01DX001 (ip), vehicle: saline with Tween-80
[4] = endpoint: mean survival time, dose: 200.0 mg/kg/injection, schedule: Q04DX002 (ip), vehicle: saline with Tween-80
[5] = endpoint: mean survival time, dose: 400.0 mg/kg/injection, schedule: Q01DX001 (ip), vehicle: saline with Tween-80
[6] = endpoint: mean survival time, dose: 100.0 mg/kg/injection, schedule: Q01DX001 (ip), vehicle: saline
[7] = endpoint: mean survival time, dose: 200.0 mg/kg/injection, schedule: Q01DX001 (ip), vehicle: saline
[8] = endpoint: mean survival time, dose: 400.0 mg/kg/injection, schedule: Q01DX001 (ip), vehicle: saline
[9] = endpoint: mean survival time, dose: 100.0 mg/kg/injection, schedule: Q04DX003 (ip), vehicle: saline with Tween-80
[10] = endpoint: mean survival time, dose: 200.0 mg/kg/injection, schedule: Q04DX003 (ip), vehicle: saline with Tween-80
[11] = endpoint: mean survival time, dose: 400.0 mg/kg/injection, schedule: Q04DX003 (ip), vehicle: saline with Tween-80
[12] = endpoint: mean survival time, dose: 100.0 mg/kg/injection, schedule: Q01DX001 (ip), vehicle: Klucel (hydroxypropylcellulose) (HPC)
[13] = endpoint: mean survival time, dose: 200.0 mg/kg/injection, schedule: Q01DX001 (ip), vehicle: Klucel (hydroxypropylcellulose) (HPC)
[14] = endpoint: mean survival time, dose: 400.0 mg/kg/injection, schedule: Q01DX001 (ip), vehicle: Klucel (hydroxypropylcellulose) (HPC)
[15] = endpoint: mean survival time, dose: 100.0 mg/kg/injection, schedule: Q01DX009 (ip), vehicle: saline with Tween-80

Measured: T/C

O=C1CC(=O)C(CCc2cccc3ccccc23)C1=O (stereo not given)
inactive: [1] 86 % of control | [2] 100 % of control | [3] 94 % of control | [4] 93 % of control | [5] 105 % of control

Cc1ccc(OCC2CO2)cc1 (stereo not given)
inactive: [6] 104 % of control | [7] 95 % of control | [8] 102 % of control

COc1cc(OC)c(OC)cc1/C=C\c1ccc2ccccc2[n+]1C
inactive: endpoint: mean survival time, dose: 12.5 mg/kg/injection, schedule: Q01DX009 (ip), vehicle: saline with Tween-80 100 % of control | endpoint: mean survival time, dose: 25.0 mg/kg/injection, schedule: Q01DX009 (ip), vehicle: saline with Tween-80 91 % of control | [9] 104 % of control

Cc1ccc(/C=N/N2C(=O)CSC2=S)cc1
inactive: endpoint: mean survival time, dose: 75.0 mg/kg/injection, schedule: Q01DX001 (ip), vehicle: other 102 % of control | endpoint: mean survival time, dose: 150.0 mg/kg/injection, schedule: Q01DX001 (ip), vehicle: other 97 % of control

CN(C)C(=O)c1cccc(COc2ccc([N+](=O)[O-])cc2Cl)c1
inactive: endpoint: mean survival time, dose: 100.0 mg/kg/injection, schedule: Q01DX009 (ip), vehicle: saline sonified 102 % of control | [9] 101 % of control | endpoint: mean survival time, dose: 200.0 mg/kg/injection, schedule: Q01DX009 (ip), vehicle: saline sonified 98 % of control | [10] 103 % of control | [11] 95 % of control

CCOC(CNCc1cccc(OC)c1)OCC
inactive: [6] 100 % of control | [7] 100 % of control

C=C1N(c2cc3ccccc3o2)C(=O)OC12CCCCC2
inactive: [1] 101 % of control | [3] 98 % of control | [5] 91 % of control

CCN=C(N)SCCS(=O)(=O)O
inactive: endpoint: mean survival time, dose: 100.0 mg/kg/injection, schedule: Q01DX005 (ip), vehicle: saline 103 % of control | endpoint: mean survival time, dose: 100.0 mg/kg/injection, schedule: Q01DX009 (ip), vehicle: saline 97 % of control | endpoint: mean survival time, dose: 200.0 mg/kg/injection, schedule: Q01DX005 (ip), vehicle: saline 106 % of control | endpoint: mean survival time, dose: 200.0 mg/kg/injection, schedule: Q01DX009 (ip), vehicle: saline 97 % of control | endpoint: mean survival time, dose: 400.0 mg/kg/injection, schedule: Q01DX005 (ip), vehicle: saline 95 % of control | endpoint: mean survival time, dose: 400.0 mg/kg/injection, schedule: Q01DX009 (ip), vehicle: saline 97 % of control

CCSc1nc(N)c2ncn(C3OC(C)C(O)C(O)C3O)c2n1 (stereo not given)
inactive: endpoint: median survival time, dose: 12.5 mg/kg/injection, schedule: Q01DX005 (ip), vehicle: saline with Tween-80 106 % of control | endpoint: median survival time, dose: 25.0 mg/kg/injection, schedule: Q01DX005 (ip), vehicle: saline with Tween-80 101 % of control | endpoint: median survival time, dose: 50.0 mg/kg/injection, schedule: Q01DX005 (ip), vehicle: saline with Tween-80 94 % of control | endpoint: median survival time, dose: 100.0 mg/kg/injection, schedule: Q01DX005 (ip), vehicle: saline with Tween-80 103 % of control | endpoint: median survival time, dose: 200.0 mg/kg/injection, schedule: Q01DX005 (ip), vehicle: saline with Tween-80 100 % of control

NC(=S)CNC(=O)c1ccccc1
inactive: [9] 100 % of control and 101 % of control | [10] 101 % of control and 106 % of control | [11] 99 % of control and 111 % of control

O=C(CBr)c1cc2ncccc2c2ccccc12
inactive: endpoint: mean survival time, dose: 100.0 mg/kg/injection, schedule: Q01DX009 (ip), vehicle: other 101 % of control

CCN1/C(=C/C=C/C=C/c2sc3ccccc3[n+]2CC)Sc2ccccc21
inactive: endpoint: mean survival time, dose: 0.08 mg/kg/injection, schedule: Q01DX009 (ip), vehicle: saline 109 % of control | endpoint: mean survival time, dose: 0.09 mg/kg/injection, schedule: Q01DX009 (ip), vehicle: saline 117 % of control | endpoint: mean survival time, dose: 0.12 mg/kg/injection, schedule: Q01DX009 (ip), vehicle: saline 114 % of control | endpoint: mean survival time, dose: 0.16 mg/kg/injection, schedule: Q04DX003 (ip), vehicle: saline 105 % of control | endpoint: mean survival time, dose: 0.19 mg/kg/injection, schedule: Q01DX009 (ip), vehicle: saline 121 % of control | endpoint: mean survival time, dose: 0.25 mg/kg/injection, schedule: Q04DX003 (ip), vehicle: saline 112 % of control | endpoint: mean survival time, dose: 0.28 mg/kg/injection, schedule: Q01DX009 (ip), vehicle: saline 114 % of control | endpoint: mean survival time, dose: 0.33 mg/kg/injection, schedule: Q04DX002 (ip), vehicle: saline 101 % of control | endpoint: mean survival time, dose: 0.38 mg/kg/injection, schedule: Q04DX003 (ip), vehicle: saline 108 % of control | endpoint: mean survival time, dose: 0.42 mg/kg/injection, schedule: Q01DX009 (ip), vehicle: saline 122 % of control | endpoint: mean survival time, dose: 0.5 mg/kg/injection, schedule: Q04DX002 (ip), vehicle: saline 112 % of control | endpoint: mean survival time, dose: 0.57 mg/kg/injection, schedule: Q04DX003 (ip), vehicle: saline 118 % of control | endpoint: mean survival time, dose: 0.66 mg/kg/injection, schedule: Q01DX001 (ip), vehicle: saline 120 % of control | endpoint: mean survival time, dose: 0.76 mg/kg/injection, schedule: Q04DX002 (ip), vehicle: saline 106 % of control | endpoint: mean survival time, dose: 0.85 mg/kg/injection, schedule: Q04DX003 (ip), vehicle: saline 112 % of control | endpoint: mean survival time, dose: 0.99 mg/kg/injection, schedule: Q01DX001 (ip), vehicle: saline 118 % of control | endpoint: mean survival time, dose: 1.1 mg/kg/injection, schedule: Q04DX002 (ip), vehicle: saline 114 % of control | endpoint: mean survival time, dose: 1.5 mg/kg/injection, schedule: Q01DX001 (ip), vehicle: saline 100 % of control | endpoint: mean survival time, dose: 1.7 mg/kg/injection, schedule: Q04DX002 (ip), vehicle: saline 97 % of control | endpoint: mean survival time, dose: 2.2 mg/kg/injection, schedule: Q01DX001 (ip), vehicle: saline 114 % of control | endpoint: mean survival time, dose: 3.3 mg/kg/injection, schedule: Q01DX001 (ip), vehicle: saline 114 % of control

COc1ccc(/C=N/NC(N)=S)cc1
inactive: endpoint: mean survival time, dose: 16.0 mg/kg/injection, schedule: Q01DX008 (iv), vehicle: saline 98 % of control | endpoint: mean survival time, dose: 32.0 mg/kg/injection, schedule: Q01DX008 (iv), vehicle: saline 100 % of control | endpoint: mean survival time, dose: 32.0 mg/kg/injection, schedule: Q01DX009 (ip), vehicle: saline 100 % of control and 109 % of control | endpoint: mean survival time, dose: 64.0 mg/kg/injection, schedule: Q01DX008 (iv), vehicle: saline 97 % of control | endpoint: mean survival time, dose: 64.0 mg/kg/injection, schedule: Q01DX009 (ip), vehicle: saline 98 % of control | endpoint: mean survival time, dose: 128.0 mg/kg/injection, schedule: Q01DX009 (ip), vehicle: saline 100 % of control and 109 % of control | endpoint: mean survival time, dose: 256.0 mg/kg/injection, schedule: Q01DX009 (ip), vehicle: saline 104 % of control and 112 % of control

CC(=O)OC1C(CNC(=O)Oc2ccccc2)OC(n2cnc3c(=O)[nH]c(N)nc32)C1OC(C)=O (stereo not given)
inactive: [12] 88 % of control | [13] 94 % of control | [14] 91 % of control

CCOC(=O)C1=C(N)CCCC1
inactive: [12] 96 % of control | [13] 122 % of control | [14] 96 % of control

Nc1ccc(I)cc1F
inactive: [9] 100 % of control | [10] 104 % of control | [11] 100 % of control

COc1cc(OC)c(NC(=O)Nc2cccc(SC)c2)cc1Cl
inactive: endpoint: mean survival time, dose: 50.0 mg/kg/injection, schedule: Q01DX009 (ip), vehicle: saline with Tween-80 92 % of control | [15] 88 % of control

O=C1c2cccc(O)c2C(=O)c2c(O)cccc21
inactive: [6] 100 % of control | [7] 102 % of control | [8] 100 % of control

N#C/C(=C\C1CCC2OCOC2C1)C1CCC([N+](=O)[O-])CC1 (stereo not given)
inactive: [2] 97 % of control | [4] 87 % of control | endpoint: mean survival time, dose: 400.0 mg/kg/injection, schedule: Q04DX002 (ip), vehicle: saline with Tween-80 91 % of control

O=C(CC(=O)c1ccccc1)CC(=O)c1ccccc1
inactive: [15] 98 % of control | endpoint: mean survival time, dose: 200.0 mg/kg/injection, schedule: Q01DX009 (ip), vehicle: saline with Tween-80 100 % of control | endpoint: mean survival time, dose: 400.0 mg/kg/injection, schedule: Q01DX009 (ip), vehicle: saline with Tween-80 102 % of control

COC1OC(OC2OC=C3C(=O)OC4CC(C)C2C34)C(O)C(O)C1O (stereo not given)
inactive: endpoint: median survival time, dose: 4.0 mg/kg/injection, schedule: Q01DX005 (ip), vehicle: Klucel (hydroxypropylcellulose) (HPC) 104 % of control | endpoint: median survival time, dose: 8.0 mg/kg/injection, schedule: Q01DX005 (ip), vehicle: Klucel (hydroxypropylcellulose) (HPC) 101 % of control | endpoint: median survival time, dose: 16.0 mg/kg/injection, schedule: Q01DX005 (ip), vehicle: Klucel (hydroxypropylcellulose) (HPC) 104 % of control | endpoint: median survival time, dose: 32.0 mg/kg/injection, schedule: Q01DX005 (ip), vehicle: Klucel (hydroxypropylcellulose) (HPC) 109 % of control

From PubChem BioAssay AID256 (DTP/NCI, 2004)
